For experiment [1], the target named is T1, Transcriptional activator protein LuxR (Aliivibrio fischeri) (UniProt P12746).
T1 sequence (whole entry): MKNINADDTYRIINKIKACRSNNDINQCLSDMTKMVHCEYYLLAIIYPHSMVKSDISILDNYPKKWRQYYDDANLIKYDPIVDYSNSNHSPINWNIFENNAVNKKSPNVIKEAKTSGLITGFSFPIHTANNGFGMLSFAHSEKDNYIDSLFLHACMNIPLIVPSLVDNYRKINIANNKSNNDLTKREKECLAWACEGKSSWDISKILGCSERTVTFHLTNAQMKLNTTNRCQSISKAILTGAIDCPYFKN
Briefly: Agonist activity at Vibrio fischeri LuxR expressed in Escherichia coli NM522 containing Photorhabdus luminescens LuxCDABE assessed as induction of quorum sensing activation mediated bioluminescence at 0.1 to 200 uM after 4 to 5 hrs by bioluminescence assay. In kind it is functional.

Experiment [2] deals with T2, Transcriptional activator protein LuxR (Aliivibrio fischeri, UniProt P12746).
T2 sequence (P12746 whole entry): T1 sequence (whole entry)
In words: Antagonist activity at Vibrio fischeri LuxR expressed in Escherichia coli NM522 containing Photorhabdus luminescens LuxCDABE assessed as inhibition of 3-oxo-C6-HSL-induced quorum sensing activation mediated bioluminescence after 4 to 5 hrs by bioluminescence assay. Type of experiment: functional.

Usually IC50 stands for the concentration that gives 50% inhibition.

Each structure is given as a SMILES string. Calls of active or inactive are those of the source. The rule behind the calls is not given here.

With `CCCCCNS(=O)(=O)C1CCOC1=O` (stereo not drawn), the result in experiment [1] was inactive. In addition, in experiment [2], the half-maximal inhibitory concentration (IC50) stood at 70 µM.

For `CCCCCCCCNC(=O)C1CCCC1=O` (stereo not drawn), the outcome in experiment [1] was inactive. Also, the IC50 in experiment [2] was found to be 77 µM.

Consider `CCCCN(C)C(=O)C1CCOC1=O` (stereo not drawn), for which the outcome in experiment [1] was inactive.

Take `CCCCCNC(=O)C1CCOC1=O` (stereo not drawn): the result in experiment [1] was inactive. In addition, in experiment [2], the IC50 stood at 34 µM.

For `CCCCCNC(=O)C1CCCC1O` (mixture of isomers) [listing 1 of 2 here], in experiment [2], the IC50 turned out to be 200 µM.

As for `CCCCCCN(C)C(=O)C1CCOC1=O` (stereo not drawn), the outcome in experiment [1] was inactive.

Turning to `CCCCNC(=O)C1CCOC1=O` (stereo not drawn), in experiment [1], the outcome was inactive. Also, the IC50 in experiment [2] worked out at 96 µM.

Take `CCCCCNC(=O)C1CCCC1O` (stereo not drawn): the IC50 in experiment [2] was determined as 92 µM.

As for `CCCCNS(=O)(=O)C1CCOC1=O` (stereo not drawn), the outcome in experiment [1] was inactive. Besides, in experiment [2], the IC50 was more than 200 µM.

In the case of `CCCCCCCCNC(=O)C1CCOC1=O` (stereo not drawn), the result in experiment [1] was inactive. Besides, in experiment [2], the IC50 came out at 52 µM.

For the compound `CCCCCCNC(=O)C1CCOC1=O` (stereo not drawn), the result in experiment [1] was inactive. For the same compound, the half-maximal inhibitory concentration (IC50) in experiment [2] stood at 54 µM.

`CCCCCNC(=O)C1CCCC1=O` (stereo not drawn): the outcome in experiment [1] was inactive. In addition, the IC50 in experiment [2] came to 40 µM.

With `CCCCCNC(=O)C1CCCC1O` (mixture of isomers) [listing 2 of 2 here], the outcome in experiment [1] was inactive.

For `CCCCCCCCCCNC(=O)C1CCOC1=O` (stereo not drawn), in experiment [1], the result was inactive. In addition, the IC50 in experiment [2] amounted to 75 µM.
